What was measured:
[1] = system: stimulated human cultured macrophages; settings: THP-1, BHA of reduced molecular weight; cited from earlier work
[2] = system: rats with MSU-induced gouty arthritis; experiment: Dose screening on MSU crystals-induced acute gout in rats: ankle swelling ratio; type: in vivo, Wistar rats; settings: P<0.05
Procedure: 48 male Wistar rats (8 weeks: 180-200 g), purchased from Yisi Experimental Animal Technology Company Ltd, Jilin, China (SCXK (Ji)-2016-0003), were housed in plastic cages and maintained on a 12-h light/12-h dark cycle (lights on 7:00-19:00 h) under standard laboratory conditions of 55% relative humidity and 23° C.±1° C. They were given standard chow and tap water ad libitum. All experimental procedures were approved by the Animal Ethics Committee of Jilin University (Reference NO. 201605).
An experimental model of MSU-induced gouty arthritis was used in order to evaluate the anti-inflammatory activities of BHA similar as previous studies with some modifications. Rats were randomly divided into eight groups (n=6), including control group (NC), model group (MC), 0.3 mg/kg colchicine group (COL), 5 μg BHA group (5BHA), 10 μg BHA group (10BHA), 25 μg BHA group (25BHA), 50 μg BHA group (50BHA), 100 μg BHA group (100BHA). MSU crystals were suspended in 0.9% sterile saline (30 mg/mL) prior to use. Rats in the colchicine group were orally administered colchicine (0.3 mg/kg) for 8 days. At day 6, MSU solution (100 μL of 30 mg/mL) was intra-articular injected at the right ankles of all rats except the NC group m which were injected with saline solution. 5BHA, 10BHA, 25BHA, 50BHA and 100BHA groups received intra-articular injections of 5, 10, 25, 50, or 100 μg BHA along with MSU solution (100 μL of 30 mg/mL MSU solution contains 5, 10, 25, 50 or 100 μg BHA) were administered according to the stated BHA doses.
The right ankle circumference of all rats at 0, 4, 12, 24 and 48 h after MSU injection was measured. The swelling ratio (%) was used for evaluating the gouty arthritis and calculated according to the change of the circumference following the formula: Swelling ratio (%)=(Ct−C0)/C0. Wherein, Ct represented the circumference at t hour and C0 represented the circumference at 0 hour.

Substance: N-butyrylated HA [BHA]
- production of pro-inflammatory cytokines (IL-1, IL-6, IL-8, TNF-α) [1]: decreased production of pro-inflammatory cytokines significantly
- swelling of the ankle compared to MSU treated group ([2]; n=6, BHA 5-100 μg intra-articular, at 4 h and 12 h): significantly suppressed swelling
- swelling of the ankle compared to MSU treated group ([2]; n=6, BHA at doses of 10 μg, 50 μg and 100 μg, at 48 h): significant suppressing of swelling effect
